Assay results as given in patent US11155523B2, “Biphenyl compound as CCR2/CCR5 receptor antagonist” (Medshine Discovery Inc., priority 2016, dated 2021).

Experiments:
CYP2D6 = molecular target: T1, CYP2D6 (Homo sapiens, UniProt P10635); test: Inhibition of human liver microsomal CYP2D6 (dextromethorphan probe); type: in vitro ADME; conditions: human liver microsomes
T1 construct: from tissue; host or cells: human liver microsomes
Protocol: (§1) Experimental Example 4 Inhibition Effect on the Activity of Human Liver Microsomal Cytochrome P450 Isoezymes (CYP1A2, CYP2C9, CYP2C19, CYP2D6 and CYP3A4)
(§2) A total of 5 specific probe substrates for CYP's five isozymes, Phenacetin (CYP1A2), Diclofenac (CYP2C9), […] (S)-Mephenytoin, CYP2C19), Dextromethorphan (CYP2D6) and Midazolam (CYP3A4) were incubated with human liver microsomes and test compounds, respectively, and reduced nicotinamide adenine dinucleotide phosphate (NADPH) was added to initiate the reaction. After the reaction, the sample was processed and liquid chromatography tandem mass spectrometry (LC-MS/MS) was used to quantitatively detect the […] metabolites produced by the specific substrate, Acetaminophen and 4′-hydroxydiclofenac, 4′-hydroxymephenytoin, Dextrorphan and 1′-hydroxymidazolam, in order to calculate the corresponding half maximal inhibitory concentration (IC50).

[1] = Comparative pharmacokinetics study in rats; type: in vivo, SD male rats; conditions: rat
Protocol: Experimental Example 2: Comparative Pharmacokinetics Study in Rats
(§3) SD male rats were used as the test animals in this study. The drug concentrations in plasma of the rats by intravenous or oral administration of test compounds WX017, WX047, WX079, WX088 and reference compound at different time points were quantitatively determined by LC/MS/MS, which were used to evaluate the pharmacokinetic profile of the two test drugs in rats.
A clear solution of the test compound was injected into SD rats via the tail vein (overnight fasting, 7-10 weeks old), and the test compound was orally administered to the SD rats (overnight fasting, 7-10 weeks old). Approximately 200 μL of blood was collected from the jugular vein or tail vein of the animals 0.0833, 0.25, 0.5, 1, 2, 4, 6, 8 and 24 hours after administration, and was placed in an anticoagulant tube containing EDTA-K2. The plasma was collected by centrifugation at 3000 g for 15 minutes at 4° C. The plasma concentration was determined by LC-MS/MS. The pharmacokinetic parameters were calculated by the non-compartment model linear logarithmic trapezoidal method using WinNonlin™ Version 6.3 (Pharsight, Mountain View, Calif.) pharmacokinetic software.

CYP1A2 = molecular target: T2, CYP1A2 (Homo sapiens, UniProt P05177); test: Inhibition of human liver microsomal CYP1A2 (phenacetin probe); type: in vitro ADME; conditions: human liver microsomes
T2 construct: from tissue; host or cells: human liver microsomes
T2 sequence (P05177 1-516): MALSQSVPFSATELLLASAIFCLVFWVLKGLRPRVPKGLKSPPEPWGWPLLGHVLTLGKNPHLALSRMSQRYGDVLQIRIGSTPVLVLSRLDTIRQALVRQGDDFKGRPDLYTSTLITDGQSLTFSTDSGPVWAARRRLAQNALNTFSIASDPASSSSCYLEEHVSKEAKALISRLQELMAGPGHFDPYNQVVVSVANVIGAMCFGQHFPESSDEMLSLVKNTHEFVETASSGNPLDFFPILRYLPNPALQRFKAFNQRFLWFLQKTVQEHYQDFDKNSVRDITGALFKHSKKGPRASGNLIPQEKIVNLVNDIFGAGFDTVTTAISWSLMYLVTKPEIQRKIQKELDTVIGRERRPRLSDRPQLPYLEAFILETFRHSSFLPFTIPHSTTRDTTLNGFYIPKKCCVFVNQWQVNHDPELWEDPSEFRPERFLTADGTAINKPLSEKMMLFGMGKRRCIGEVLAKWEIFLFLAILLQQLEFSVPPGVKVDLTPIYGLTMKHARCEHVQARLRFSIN
Protocol: as §1, §2

CYP3A4 = molecular target: T3, CYP3A4 (Homo sapiens, UniProt P08684); test: Inhibition of human liver microsomal CYP3A4 (midazolam probe); type: in vitro ADME; conditions: human liver microsomes, probe midazolam
T3 construct: from tissue; host or cells: human liver microsomes
Protocol: as §1, §2

[2] = Comparative pharmacokinetics study in cynomolgus monkeys; type: in vivo; conditions: cynomolgus monkey
Text: Experimental Example 3: Comparative Pharmacokinetics Study in Cynomolgus Monkeys
as §3, with “Male cynomolgus monkeys” for “SD male rats”, “cynomolgus monkeys” for “rats”, “compound WX047” for “compounds WX017, WX047, WX079, WX088”, “cynomolgus monkeys.” for “rats.”
A clear solution of the test compound was injected into cynomolgus monkeys via t the cephalic or saphenous vein (overnight fasting, 2.5-7 kg), and the test compound was intragastrically administered to the cynomolgus monkeys (overnight fasting, 7-10 weeks old). Approximately 400 μL of blood was collected from the peripheral vein of the animals 0.0833, 0.25, 0.5, 1, 2, 4, 6, 8, 12 and 24 hours after administration, and transferred into an commercial centrifuge tube containing EDTA-K2*2H2O anticoagulation. The plasma was collected by centrifugation at 3000 g for 10 minutes at 4° C. The plasma concentration was determined by LC-MS/MS. The pharmacokinetic parameters were calculated by the non-compartment model linear logarithmic trapezoidal method using WinNonlin™ Version 6.3 (Pharsight, Mountain View, Calif.) pharmacokinetic software.

CYP2C19 = molecular target: T4, CYP2C19 (Homo sapiens, UniProt P33261); test: Inhibition of human liver microsomal CYP2C19 ((S)-mephenytoin probe); type: in vitro ADME; conditions: human liver microsomes
T4 construct: from tissue; host or cells: human liver microsomes
Protocol: as §1, §2

[3] = male, Sprague-Dawley (SD), plasma, intravenous injection 2 mg/kg
[4] = male, plasma, intravenous injection 1 mg/kg

T1 sequence (P10635 whole entry): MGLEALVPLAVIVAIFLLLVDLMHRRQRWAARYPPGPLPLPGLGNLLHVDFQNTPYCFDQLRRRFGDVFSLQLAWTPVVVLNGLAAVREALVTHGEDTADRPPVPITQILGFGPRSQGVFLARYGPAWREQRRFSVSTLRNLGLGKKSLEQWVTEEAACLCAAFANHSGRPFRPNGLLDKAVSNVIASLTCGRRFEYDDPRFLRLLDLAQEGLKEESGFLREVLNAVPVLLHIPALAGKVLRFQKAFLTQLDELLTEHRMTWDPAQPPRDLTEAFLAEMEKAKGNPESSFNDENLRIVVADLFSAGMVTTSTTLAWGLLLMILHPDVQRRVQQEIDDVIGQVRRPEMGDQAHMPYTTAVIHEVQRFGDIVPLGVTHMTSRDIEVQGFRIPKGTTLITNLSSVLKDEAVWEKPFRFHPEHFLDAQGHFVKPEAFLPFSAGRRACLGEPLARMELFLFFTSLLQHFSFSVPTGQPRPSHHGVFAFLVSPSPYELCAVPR
T4 sequence (P33261 whole entry): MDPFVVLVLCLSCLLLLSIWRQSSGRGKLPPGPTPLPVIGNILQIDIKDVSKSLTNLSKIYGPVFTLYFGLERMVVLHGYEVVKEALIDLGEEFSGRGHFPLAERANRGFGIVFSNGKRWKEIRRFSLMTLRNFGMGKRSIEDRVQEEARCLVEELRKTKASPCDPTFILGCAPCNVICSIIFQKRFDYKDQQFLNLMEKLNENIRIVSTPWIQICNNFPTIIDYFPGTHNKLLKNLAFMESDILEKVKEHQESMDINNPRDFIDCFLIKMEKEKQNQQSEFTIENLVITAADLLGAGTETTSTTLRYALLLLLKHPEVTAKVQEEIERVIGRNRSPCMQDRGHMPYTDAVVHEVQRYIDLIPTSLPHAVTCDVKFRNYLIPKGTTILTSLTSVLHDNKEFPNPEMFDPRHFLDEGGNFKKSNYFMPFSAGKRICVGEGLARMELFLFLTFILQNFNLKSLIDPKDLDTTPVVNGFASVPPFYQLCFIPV
T3 sequence (P08684 whole entry): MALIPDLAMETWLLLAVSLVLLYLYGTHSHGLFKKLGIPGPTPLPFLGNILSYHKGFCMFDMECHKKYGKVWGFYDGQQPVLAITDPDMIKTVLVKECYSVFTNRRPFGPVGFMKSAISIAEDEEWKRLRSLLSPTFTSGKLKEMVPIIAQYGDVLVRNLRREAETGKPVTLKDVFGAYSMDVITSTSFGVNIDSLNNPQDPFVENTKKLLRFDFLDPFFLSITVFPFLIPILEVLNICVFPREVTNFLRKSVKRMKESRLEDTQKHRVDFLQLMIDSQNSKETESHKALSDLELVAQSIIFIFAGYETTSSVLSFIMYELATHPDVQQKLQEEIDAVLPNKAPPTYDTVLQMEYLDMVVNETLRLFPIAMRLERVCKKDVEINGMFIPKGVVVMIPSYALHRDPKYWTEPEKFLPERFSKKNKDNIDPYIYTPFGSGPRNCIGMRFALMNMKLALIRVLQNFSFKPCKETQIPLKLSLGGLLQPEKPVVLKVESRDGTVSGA

## CCCCOCCOc1ccc(-c2ccc(OCC)c(/C=C/C(=O)Nc3ccc([S@+]([O-])Cc4c(C)ncn4CC)cc3)c2)cc1 [WX047]
CYP2D6
  IC50: > 50 µM
[1]; [3]
  clearance: 0.52 mL/min/kg
  half-life: 3.06 h
[1]; male, Sprague-Dawley (SD), plasma, oral 10 mg/kg vs intravenous 2 mg/kg
  bioavailability: 40.4%
[1]; intravenous injection 2 mg/kg
  Area Under a Curve (0-inf): 101.904 µM·h
[1]; oral 10 mg/kg
  Area Under a Curve (0-inf/0-last): 204.785 µM·h
  Peak time: 5.0 h
[1]; oral, relative to Cenicriviroc
  Oral plasma system exposure (AUC0-inf) as multiple of the reference compound: 6.4 times
[1]; relative to Cenicriviroc
  Plasma clearance as percent of that of the reference compound: 33%
CYP1A2
  IC50: > 50 µM
CYP3A4
  IC50: > 50 µM
[2]; intravenous injection 1 mg/kg
  Area Under a Curve (0-inf): 3.149 µM·h
[2]; oral 3 mg/kg
  Area Under a Curve (0-inf/0-last): 3.678 µM·h
  Peak time: 2.0 h
[2]; oral, relative to Cenicriviroc
  Oral plasma system exposure (AUC0-inf) as multiple of the reference compound: 10.8 times
[2]; relative to Cenicriviroc
  Bioavailability as multiple of the reference compound: 7.6 times
[2]; [4]
  clearance: 9.11 mL/min/kg
  half-life: 1.66 h
[2]; male, plasma, oral 3 mg/kg vs intravenous 1 mg/kg
  bioavailability: 38.9%
CYP2C19
  IC50: > 50 µM
